Patent publication US4348410A, “Cyclohexane carboxylic acid derivatives” (Nippon Chemiphar Co., Ltd., priority 1979, dated 1982)

Legend:
[1] = tested on: ileum of a guinea pig, sensitized with egg albumin; test: Contraction of ileum of a guinea pig sensitized with egg albumin, antigen-induced; details: 0.50 μg; with 250 μg/ml egg albumin as antigen
trypsin = target: T1, trypsin (Bos taurus, UniProt P00760); test: Inhibitory effects on trypsin (hydrolysis of p-tosylarginine methyl ester); format: biochemical; details: 37° C., 10 minutes; concentration not given
T1 sequence (P00760 24-246): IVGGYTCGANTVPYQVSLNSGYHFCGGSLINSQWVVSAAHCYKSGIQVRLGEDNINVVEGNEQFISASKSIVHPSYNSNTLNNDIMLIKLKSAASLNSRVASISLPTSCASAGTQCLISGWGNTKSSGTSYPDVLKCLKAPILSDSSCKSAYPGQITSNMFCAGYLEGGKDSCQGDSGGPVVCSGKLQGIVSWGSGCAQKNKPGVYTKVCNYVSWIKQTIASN
Experimental: In particular, inhibitory effects of the compounds on hydrolysis of p-tosylarginine methyl ester by trypsin were examined (incubated at 37° C. for 10 minutes).

urokinase = urokinase (Homo sapiens, UniProt P00749); test: Inhibitory effects on urokinase (hydrolysis of N-acetylglycyl lysine methyl ester); format: biochemical; details: 37° C., 10 minutes; concentration not given
Experimental: The compounds of the formula (I) have excellent inhibitory effects on protease. The inhibitory effects were determined by the following methods: Inhibitory effects of the compounds on urokinase were determined according to the method described by A. J. Joeson et al (Throm. […]. 21, 259-272 (1969)). In particular, inhibitory effects of the compounds on hydrolysis of N-acetylglycyl lysine methyl ester by urokinase were determined (incubated at 37° C. for 10 minutes).

Shay ulcers = Shay ulcers (pylorus ligation); format: in vivo, Male Sprague-Dawley strain rats; details: 400 mg/kg i.p.
Experimental: The rats were sacrificed 18 hours later by an overdose of ether and the stomach removed. The stomach was incised along the greater curvature and the surface area of each lesion in forestomach was measured by the naked eye. […] 4=many ulcers of marked size 5=perforated ulcer The test drugs were given intraperitoneally, immediately after pylorus ligation.

ileum of a guinea pig = test: Anti-histamine effect: contraction of ileum induced by histamin dihydrochloride; details: 1~5 μg; 10^-6 g/ml histamin dihydrochloride
chymotrypsin = chymotrypsin (Bos taurus, UniProt P00766); test: Inhibitory effects on chymotrypsin (hydrolysis of N-acetyl-L-tyrosine ethyl ester); format: biochemical; details: 37° C., 10 minutes; concentration not given
Experimental: The compounds of the formula (I) have excellent inhibitory effects on protease. The inhibitory effects were determined by the following methods: Inhibitory effects on the compounds of chymotrypsin were determined according to the method described by M. […] In particular, inhibitory effects of the compounds on hydrolysis of N-acetyl-L-tyrosine ethyl ester by chymotrypsin were examined (incubated at 37° C. for 10 minutes).

thrombin = thrombin (Bos taurus, UniProt P00735); test: Inhibitory effects on thrombin (hydrolysis of p-tosylarginine methyl ester); format: biochemical; details: 37° C., 10 minutes; concentration not given
Experimental: The compounds of the formula (I) have excellent inhibitory effects on protease. The inhibitory effects were determined by the following methods:
Inhibitory effects of the compounds on thrombin were determined according to the method described by M. Muramatsu et al (The Journal of Biochemistry, Volume 65 (1), 17 (1969)). In particular, inhibitory effects of the compounds on hydrolysis of p-tosylarginine methyl ester by thrombin were examined (incubated at 37° C. for 10 minutes).

[2] = tested on: carrageenin-induced inflammation; test: Carrageenin-induced inflammation; details: Rattus norvegicus, ip, read-out: ED50, inhibition of carrageenin-induced inflammation

Compound | inhibition of the contraction of the ileum sensitized with egg albumin [1] | Inhibition (%) Trypsin (trypsin) [%] | Inhibition (%) Urokinase (urokinase) [%] | Ulcer Grade 0 (number of rats) (Shay ulcers; 0=no lesion) | Ulcer Grade 1 (number of rats) (Shay ulcers; 1=hemorrhagic suffusion) | Ulcer Grade 2 (number of rats) (Shay ulcers; 2=1-5 small ulcers (<3 mm)) | Ulcer Grade 3 (number of rats) (Shay ulcers; 3=many small ulcers (more than 5) or 1 ulcer of marked size) | Ulcer Grade 4 (number of rats) (Shay ulcers; 4=many ulcers of marked size) | Ulcer Grade 5 (number of rats) (Shay ulcers; 5=perforated ulcer) | inhibition of the contraction of the ileum induced by histamin dihydrochloride (ileum of a guinea pig) | Inhibition (%) Chymotrypsin (chymotrypsin) [%] | Inhibition (%) Thrombin (thrombin) [%] | ED50 [2] [mg/kg]
Cl.N=C(N)NC[C@H]1CC[C@H](C(=O)Oc2ccccc2)CC1 [Compound 3] | inhibited completely | 42 | 52 | 11 | 4 | 5 | 0 | 0 | 0 | inhibited completely | 48 | 30 | –
N=C(N)NC[C@H]1CC[C@H](C(=O)Oc2ccccc2)CC1 | – | – | – | – | – | – | – | – | – | – | – | – | ~200
